Reference: patent US20250319206A1, “CRISPR/CAS GENE EDITING OF NEH4 AND/OR NEH5 DOMAINS IN NRF2” (Christina Care Gene Editing Institute, Inc., priority 2024, published 2025)

Assays:
Type in all cases: cell-based, Human
NRF2 gene [1] = assay: NRF2 gene editing (indel/frameshift) analysis by NGS and CRISPResso2 in FaDu cells; conditions: for knocking out NRF2 (DNA sequence data): exon 4
Method: (§1) The NRF2 gene-coding sequence was entered into SnapGene and the following gRNAs were selected for targeting exon 2: (sg3) 5′-[…]-3′ (SEQ ID NO:75); as well as two gRNAs targeting Exon 4: (sg76) 5′-[…]-3′ (SEQ ID NO:16), (sg83) 5′-[…]-3′ (SEQ ID NO:24). Based on the gRNA design, synthetic single gRNAs were ordered from Synthego (Menlo Park, California, USA). CleanCap® Cas9 mRNA (5moU) was ordered from TriLink Biotechnologies (San Diego, CA, USA).
Either one million cells were seeded to a 75 cm^2 tissue culture flask or 2.5 million cells were seeded to a 175 cm^2 tissue culture flask 24 hours prior to transfection and allowed to reach 60-80% confluency. On the day of the transfection, cells were treated with Lipofectamine MessengerMAX reagent (Thermo Fisher Scientific, Waltham, MA) bearing 10 μg or 25 μg of Cas9mRNA and 10 μg or 25 μg of sgRNA, suspended in Opti-MEM, per the manufacturer's instructions. 39 μL or 97.5 μL of MessengerMax lipofectamine reagent was diluted in 1.5 mL or 3.75 mL OPTI-MEM medium and vortexed twice was incubated for ten minutes at room temperature, during which time the culture media was replaced with 15 mL or 25 mL of fresh media, as appropriate to the cell line. A total of 20 μg or 50 μg of RNA was then added to the diluted lipofectamine, consisting of 10 μg or 25 μg Cas9 mRNA and 10 μg or 25 μg sgRNA. The suspension was incubated at room temperature for an additional five minutes before being added, in full, to the tissue culture flask, which was then swirled gently to disperse the reagent. […]
(§2) Targeted amplicon libraries were prepared using Illumina's 16S metagenomic sequencing library preparation protocol for MiSeq. Genomic DNA was extracted from cells using the Qiagen's DNeasy Blood & Tissue kit (Quiagen, Hilden, Germany) or QuickExtract reagent (Biosearch Technologies). The region surrounding the CRISPR target site for Exon 2 (398 bp) and Exon 4 (402 bp) of the NRF2 gene were amplified using the 2× Phusion Flash PCR master mix (Thermo Fisher Scientific, Waltham, MA). Post amplification, samples were cleaned using AMPure beads and DNA concentration was measured using the Qubit assay (Thermo Fisher Scientific, Waltham, MA). Samples are also run on TapeStation (Agilent Technologies Santa Clara, CA) to verify the presence of the desired amplicon. The samples were indexed using either the IDT for Illumina DNA/RNA UD indexes set A (Illumina San Diego, CA). Samples were again quantified using Qubit and average library size was calculated using the Tapestation amplicon size. Once pooled to the loading concentration, the libraries were sequenced using the MiSeq Reagent kit v2 (Illumina, San Diego, CA). Only the data that passed data QC in Sequencing Analysis Viewer, was analyzed using CRISPResso2 (CRISPResso2 website) to understand gene editing efficiency and frameshift analysis.

[2] = test system: NRF2 downstream target genes (NQO1, HMOX1, GCLC); assay: qPCR gene expression analysis of NRF2 and downstream targets in FaDu cells; conditions: for NQO1 expression (qPCR): vs wildtype unedited cells, without cisplatin exposure
Method: Total RNA was isolated from edited cells using TRIzol reagent and PureLink RNA Mini Kit (Thermo Fisher Scientific, Waltham, MA). Reverse transcription was conducted using the Applied Biosystems High-Capacity RNA-to-cDNA kit (Thermo Fisher Scientific, Waltham, MA). The cDNA was used as the template in the qPCR amplification of GAPDH (Fwd 5′ […]3′ (SEQ ID NO:76), Rev 5′[…]3′ (SEQ ID NO:77)), NRF2 (Fwd 5′[…]3′ (SEQ ID NO:78), Rev 5′[…]3′ (SEQ ID NO:79)), NQO1 (Fwd 5′[…]3′ (SEQ ID NO:80), Rev 5′[…]3′ (SEQ ID NO:81)), HMOX1 (Fwd 5′ […]3′ (SEQ ID NO:82), Rev 5′[…]3′ (SEQ ID NO:83)) and GCLC (Fwd 5′[…]3′ (SEQ ID NO:84), Rev 5′ […]3′ (SEQ ID NO:85)) transcripts using the SsoAdvanced universal SYBR Green Supermix (BioRad, Hercules, CA). The experiment was conducted at least twice with all samples run in duplicate at minimum. Relative expression levels of mRNA were calculated using the Livak method and normalized to the control. The data was plotted with the coefficient of variance.
For all gene editing studies from bench to bedside, it is important to employ a functional assay, accompanied by an internal functional control, to assess the efficiency of CRISPR/Cas activity. In this case, NRF2 is a transcription factor that controls the expression of over 200 genes. Thus, NRF2 disruption can be measured functionally through qPCR analysis of NQO1 expression, a keystone gene controlled by NRF2. NQO1 has been used as a standard measure of NRF2 activity in cancer cells^40. We also use downstream targets HMOX1 and GCLC, two major antioxidant enzymes, to assess NRF2 function.

NRF2 gene [3] = assay: NRF2 gene editing (indel/frameshift) analysis by NGS and CRISPResso2 in KYSE-410 cells; conditions: for gene editing activity (indel profiles): seventy-two hours post-transfection; for knocking out NRF2 (DNA sequence data): exon 4
Method: as §1
Either one million cells were seeded to a 75 cm^2 tissue culture flask or 2.5 million cells were seeded to a 175 cm^2 tissue culture flask 24 hours prior to transfection and allowed to reach 60-80% confluency. On the day of the transfection, cells were treated with Lipofectamine MessengerMAX reagent (Thermo Fisher Scientific, Waltham, MA) bearing 10 μg or 25 μg of Cas9mRNA and 10 μg or 25 μg of sgRNA, suspended in Opti-MEM, per the manufacturer's instructions. 39 μL or 97.5 μL of MessengerMax lipofectamine reagent was diluted in 1.5 mL or 3.75 mL OPTI-MEM medium and vortexed twice was incubated for ten minutes at room temperature, during which time the culture media was replaced with 15 mL or 25 mL of fresh media, as appropriate to the cell line. A total of 20 μg or 50 μg of RNA was then added to the diluted lipofectamine, consisting of 10 μg or 25 μg Cas9 mRNA and 10 μg or 25 μg sgRNA. The suspension was incubated at room temperature for an additional five minutes before being added, in full, to the tissue culture flask, which was then swirled gently to disperse the reagent. Treated cells were incubated for 72 hours at 37° C. prior to being assayed.
as §2

[4] = 13 days (two weeks) after transfection

Substance | editing (NRF2 gene [1]; 72 hr) [%] | editing (NRF2 gene [1]; [4]) [%] | frameshift mutations (of the total indels) (NRF2 gene [1]; exon 2, 72 hours) | total indel population (NRF2 gene [1]; exon 2, 72 hours) | expression of NQO1, HMOX1, and GCLC ([2]; 2 week timepoint) | expression of downstream target genes relative to NRF2 levels (ratio) ([2]; 72 hr) | gene editing activity (indel profiles) (NRF2 gene [3]) [%] | knocking out NRF2 (DNA sequence data) (NRF2 gene [1]) | expression of NQO1 and GCLC ([2]; 2 week timepoint, compared to sg3 and sg76) | NQO1 and GCLC expression levels ([2]; 72 hr) | NQO1 expression (qPCR) [2] | knocking out NRF2 (DNA sequence data) (NRF2 gene [3])
sg3: gRNA targeting the DLG motif in exon 2 of NRF2; 5′-TATTTGACTTCAGTCAGCGA-3′ or TGGAGGCAAGATATAGATCT (further chemistry not given here) [reference compound] | 85.5 | 73.45 | exceeded 76% | exceeded 76% | increase in expression | do not show a reduction in expression of downstream target genes relative to NRF2 levels | 97 |  |  |  |  | 
sg83: gRNA targeting exon 4 of NRF2; GTAGCCCCTGTTGATTTAGA CGG (guide GTAGCCCCTGTTGATTTAGACGG; listed as DNA, chemistry not given here) | 86 | 40.95 |  |  |  |  | 97 | efficient in knocking out NRF2 at exon 4 | lower expression of NQO1 and GCLC | diminished | significantly decreased | efficient in knocking out NRF2 at exon 4
sg76: gRNA targeting exon 4 of NRF2; TCACTTGTTCCTGATATTCC CGG (guide TCACTTGTTCCTGATATTCCCGG; listed as DNA, chemistry not given here) | 87 | 49.30 |  |  |  | do not show a reduction in expression of downstream target genes relative to NRF2 levels | 97 | efficient in knocking out NRF2 at exon 4 |  |  | significantly decreased | efficient in knocking out NRF2 at exon 4
